Measured values: ChEMBL document CHEMBL1201862, “PubChem BioAssay data set” (2004)
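Tested at 5 concentrations; 48 h exposure; 96-well plates; endpoints linearly interpolated, else capped at highest concentration. Here, GI50 denotes the concentration required for 50% inhibition of growth.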 Calls of active or inactive are those of the source. Rule as the data show it: active = GI50 up to about 1.1 µM and inactive = higher.

Key:
Assay in all cases: DTP human tumour cell line panel, 48 h
[1] = system: 786-0
[2] = system: A498
[3] = system: A549
[4] = system: ACHN
[5] = system: BT-549
[6] = system: CAKI-1
[7] = system: CCRF-CEM
[8] = system: COLO 205
[9] = system: DU-145
[10] = system: EKVX
[11] = system: HCC 2998
[12] = system: HCT-116
[13] = system: HCT-15
[14] = system: HL-60
[15] = system: HOP-62
[16] = system: HOP-92
[17] = system: HT-29
[18] = system: Hs-578T
[19] = system: IGROV-1
[20] = system: K562
[21] = system: KM12
[22] = system: LOX IMVI
[23] = system: M14
[24] = system: MCF7
[25] = system: MDA-MB-231
[26] = system: MDA-MB-435
[27] = system: MDA-N
[28] = system: MOLT-4
[29] = system: NCI-H226
[30] = system: NCI-H23
[31] = system: NCI-H460
[32] = system: NCI/ADR-RES
[33] = system: OVCAR-3
[34] = system: OVCAR-4
[35] = system: OVCAR-5
[36] = system: OVCAR-8
[37] = system: PC-3
[38] = system: RPMI-8226
[39] = system: RXF 393
[40] = system: SF-268
[41] = system: SF-295
[42] = system: SF-539
[43] = system: SK-MEL-28
[44] = system: SK-MEL-2
[45] = system: SK-OV-3
[46] = system: SN12C
[47] = system: SNB-19
[48] = system: SNB-75
[49] = system: SR
[50] = system: SW-620
[51] = system: T47D
[52] = system: TK-10
[53] = system: U-251
[54] = system: UACC-257
[55] = system: UACC-62
[56] = system: UO-31
[57] = system: Malme-3M
[58] = system: NCI-H522
[59] = system: SK-MEL-5

N#Cc1c(=O)c2cccnc2n2c1[nH]c1ccccc12
GI50 [1]: 32.1 µM (inactive)
GI50 [2]: 77.3 µM (inactive)
GI50 [3]: > 100 µM (inactive)
GI50 [4]: 42.1 µM (inactive)
GI50 [5]: 57.3 µM (inactive)
GI50 [6]: > 100 µM (inactive)
GI50 [7]: > 100 µM (inactive)
GI50 [8]: > 100 µM (inactive)
GI50 [9]: > 100 µM (inactive)
GI50 [10]: 85.9 µM (inactive)
GI50 [11]: > 100 µM (inactive)
GI50 [12]: 91.4 µM (inactive)
GI50 [13]: 98.2 µM
GI50 [14]: > 100 µM (inactive)
GI50 [15]: 41.4 µM (inactive)
GI50 [16]: 22.6 µM (inactive)
GI50 [17]: > 100 µM (inactive)
GI50 [18]: 21.6 µM (inactive)
GI50 [19]: > 100 µM (inactive)
GI50 [20]: > 100 µM (inactive)
GI50 [21]: 80.7 µM (inactive)
GI50 [22]: > 100 µM (inactive)
GI50 [23]: 90.2 µM (inactive)
GI50 [24]: > 100 µM (inactive)
GI50 [25]: 27 µM (inactive)
GI50 [26]: > 100 µM (inactive)
GI50 [27]: > 100 µM (inactive)
GI50 [28]: > 100 µM (inactive)
GI50 [29]: 66.5 µM (inactive)
GI50 [30]: 38.7 µM (inactive)
GI50 [31]: 69.2 µM (inactive)
GI50 [32]: 64.6 µM (inactive)
GI50 [33]: 78 µM (inactive)
GI50 [34]: > 100 µM (inactive)
GI50 [35]: > 100 µM (inactive)
GI50 [36]: 66.7 µM (inactive)
GI50 [37]: > 100 µM (inactive)
GI50 [38]: > 100 µM (inactive)
GI50 [39]: 74.1 µM (inactive)
GI50 [40]: 49.1 µM (inactive)
GI50 [41]: 49.3 µM (inactive)
GI50 [42]: 55.8 µM (inactive)
GI50 [43]: > 100 µM (inactive)
GI50 [44]: > 100 µM (inactive)
GI50 [45]: 52.8 µM (inactive)
GI50 [46]: > 100 µM (inactive)
GI50 [47]: 57.7 µM (inactive)
GI50 [48]: 50.5 µM (inactive)
GI50 [49]: > 100 µM (inactive)
GI50 [50]: > 100 µM (inactive)
GI50 [51]: > 100 µM (inactive)
GI50 [52]: 55.5 µM (inactive)
GI50 [53]: 38.6 µM (inactive)
GI50 [54]: > 100 µM (inactive)
GI50 [55]: > 100 µM (inactive)
GI50 [56]: 48.6 µM (inactive)

C[C@]12CC[C@H]3[C@@H](CCC4=CC(=O)CC[C@@]43C)[C@@H]1CC[C@@H]2C(=O)COS(=O)(=O)c1ccc(Br)cc1
GI50 [2]: 20.2 µM (inactive)
GI50 [3]: 18.7 µM (inactive)
GI50 [4]: 10.9 µM (inactive)
GI50 [5]: 10 µM (inactive)
GI50 [6]: 7.76 µM (inactive)
GI50 [7]: 0.207 µM (active)
GI50 [8]: 20.5 µM (inactive)
GI50 [9]: 16.8 µM (inactive)
GI50 [10]: 7.67 µM (inactive)
GI50 [11]: 2.09 µM (inactive)
GI50 [13]: 14.2 µM
GI50 [14]: 4.69 µM (inactive)
GI50 [15]: 17 µM (inactive)
GI50 [16]: 5.94 µM (inactive)
GI50 [17]: 11.8 µM (inactive)
GI50 [18]: 20.4 µM (inactive)
GI50 [19]: 1.6 µM (inactive)
GI50 [20]: 4.09 µM (inactive)
GI50 [21]: 15.1 µM (inactive)
GI50 [22]: 1.61 µM (inactive)
GI50 [23]: 6.55 µM (inactive)
GI50 [24]: 8.15 µM (inactive)
GI50 [25]: 6.49 µM (inactive)
GI50 [26]: 9.55 µM (inactive)
GI50 [27]: 0.379 µM (active)
GI50 [28]: 1.41 µM (inactive)
GI50 [57]: 3.49 µM (inactive)
GI50 [29]: 13.2 µM (inactive)
GI50 [30]: 2.37 µM (inactive)
GI50 [31]: 10.1 µM (inactive)
GI50 [58]: 1.59 µM (inactive)
GI50 [32]: 10.6 µM (inactive)
GI50 [33]: 6.43 µM (inactive)
GI50 [34]: 4.5 µM (inactive)
GI50 [35]: 18.1 µM (inactive)
GI50 [36]: 3.61 µM (inactive)
GI50 [37]: 8.85 µM (inactive)
GI50 [38]: 2.35 µM (inactive)
GI50 [39]: 14.5 µM (inactive)
GI50 [40]: 8.93 µM (inactive)
GI50 [41]: 19.3 µM (inactive)
GI50 [42]: 9.25 µM (inactive)
GI50 [43]: 21 µM (inactive)
GI50 [44]: 8.38 µM (inactive)
GI50 [59]: 8.77 µM (inactive)
GI50 [45]: 15.1 µM (inactive)
GI50 [46]: 5.97 µM (inactive)
GI50 [47]: 19.5 µM (inactive)
GI50 [48]: 17.5 µM (inactive)
GI50 [49]: 1.4 µM (inactive)
GI50 [50]: 9.4 µM (inactive)
GI50 [51]: 9.35 µM (inactive)
GI50 [52]: 18.3 µM (inactive)
GI50 [53]: 8.93 µM (inactive)
GI50 [54]: 13.7 µM (inactive)
GI50 [55]: 16 µM (inactive)
GI50 [56]: 1.7 µM (inactive)
